Counter-ions that a name gives are not always drawn. Like-named read-outs stand apart in the source and are kept apart here. Starred links: 1 amine or outer side, 2 acyl side, 3 side chain; linkers in the order of their positions; H or OH if unused. Positions of bridges follow the written chain, without caps; N, C: chain ends. Non-standard residues stand in square brackets, D forms with d. Residues, ends and D or L forms follow the SMILES beside them. *: point of attachment. DOTA = O=C(O)CN1CCN(CC(=O)O)CCN(CC(=O)*)CCN(CC(=O)O)CC1; Trp(5-OH) = N[C@@H](Cc1c[nH]c2ccc(O)cc12)C(=O)O; NMePhe(4-F) = CN[C@@H](Cc1ccc(F)cc1)C(=O)O; X2 = O=C([C@H](Cc1ccc(O)nc1)N[*:1])[*:2]; NMehPhe = CN[C@@H](CCc1ccccc1)C(=O)O; Adipoyl = O=C(CCCCC(=O)[*:2])[*:1]; Glutaryl = O=C(CCCC(=O)[*:2])[*:1]; Aad = N[C@@H](CCCC(=O)O)C(=O)O; Gly(cPr) = N[C@H](C(=O)O)C1CC1; NMeK = CN[C@@H](CCCCN)C(=O)O; NMeDap = CN[C@@H](CN)C(=O)O; NMeS = CN[C@@H](CO)C(=O)O

Assay type in all cases: binding
Experiment [1] concerns the target T1, human HER2 (23-652) (Homo sapiens, UniProt P04626). Put plainly: Surface plasmon resonance (SPR) for assessment of peptide affinity, human HER2. The arrangement: towards human HER2 (23-652) and mouse HER2 (23-653); made in house. The following applies: SPR, human HER2 extracellular domain, 25° C., 1:1 binding model; read-out: huHER2-SPR-ONC KD. The essentials:
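Binding kinetics fitted from sensorgrams with 280 s peptide association then 3000 s dissociation (30 uL/min), using HER2 (23-652) either directly immobilized (SA/CM5) or anti-Fc-captured; 3 M magnesium chloride used for regeneration.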

The target in experiment [2] is T2, mouse HER2 (23-653) (Mus musculus, UniProt P70424). Put plainly: Surface plasmon resonance (SPR) for assessment of peptide affinity, mouse HER2. On the set-up: mouse HER2 (23-653) using a Cy5 labeled peptide as a probe; made in house. The conditions noted are these: SPR, mouse HER2 extracellular domain, 25° C., 1:1 binding model; read-out: moHER2-SPR-ONC KD. The source says: Each protein was immobilized either onto a SA sensorchip (Cytiva, BR-1005-31) or CM5 sensorchip (Cytiva, BR-1005-30) to a density of 800-2000 RU.
(In general: Surface plasmon resonance follows binding to a sensor surface in real time, without labels.)

The target in experiment [3] is T1, human HER2 (23-652). Put plainly: TR-FRET competition assay for peptide potency, human HER2. The following applies: read-out: huHER2 TR-FRET IC50. On the set-up: towards human HER2 (23-652) and mouse HER2 (23-653); made in house; host or cells: mammalian cells. Background: In TR-FRET formats the signal depends on donor and acceptor labels being close together.
Experiment [4] deals with T2, mouse HER2 (23-653). Put plainly: TR-FRET competition assay for peptide potency, mouse HER2. The conditions noted are these: TR-FRET competition with Cy5 labeled peptide probe, 0.1 nM mouse HER2, 24 h incubation; read-out: moHER2 TR-FRET IC50. On the set-up: mouse HER2 (23-653) using a Cy5 labeled peptide as a probe; made in house; host or cells: mammalian cells.

As usually defined, the Kd is the concentration at which binding is half-saturated. As a reminder, the IC50 is the concentration at which inhibition is half-maximal. For `CC(=O)N[C@H]1CCC(=O)NC[C@@H](C(=O)N(C)[C@@H](Cc2ccc(F)cc2)C(N)=O)N(C)C(=O)[C@H](C2CC2)NC(=O)[C@H](Cc2c[nH]c3ccccc23)NC(=O)[C@H](Cc2cnn3ccccc23)NC(=O)[C@H](CO)N(C)C(=O)[C@H](CCc2ccccc2)N(C)C(=O)[C@H](CO)NC(=O)[C@H](Cc2ccc(O)cc2)NC1=O` [Example A16, (3S,6S,9S,12S,15S,18S,21S,24S,27S)-9-((1H-indol-3-yl)methyl)-27-acetamido-N-((S)-1-amino-3-(4-fluorophenyl)-1-oxopropan-2-yl)-6-cyclopropyl-24-(4-hydroxybenzyl)-15,21-bis(hydroxymethyl)-N,4,16,19-tetramethyl-5,8,11,14,17,20,23,26,30-nonaoxo-18-phenethyl-12-(pyrazolo[1,5-a]pyridin-3-ylmethyl)-1,4,7,10,13,16,19,22,25-nonaazacyclotriacontane-3-carboxamide], the Kd in experiment [1] and in experiment [2] was more than 6000 nM each time. Further, the 50% inhibitory concentration (IC50) in experiment [3] and in experiment [4] was more than 1000 nM in each case.

With `CC(=O)NCCCC[C@H]1C(=O)N[C@@H](Cc2c[nH]c3ccc(O)cc23)C(=O)N[C@@H](C)C(=O)N[C@@H](C2CC2)C(=O)N(C)[C@H](C(=O)N(C)[C@@H](Cc2ccc(F)cc2)C(=O)N[C@@H](CCCCNC(=O)CN2CCN(CC(=O)O)CCN(CC(=O)O)CCN(CC(=O)O)CC2)C(N)=O)CNC(=O)CCC[C@H](NC(C)=O)C(=O)N[C@@H](Cc2ccc(O)cc2)C(=O)N[C@@H](CO)C(=O)N(C)[C@@H](CCc2ccccc2)C(=O)N1C` [Example B3] (Ac-[Aad]YS[NMehPhe][NMeK](Ac)[Trp(5-OH)]A[Gly(cPr)][NMeDap][NMePhe(4-F)]K(DOTA)-NH2; lactam 1-9), the dissociation constant Kd in experiment [1] and in experiment [2] was more than 6000 nM each time. Besides, the IC50 in experiment [3] and in experiment [4] was more than 1000 nM each time.

As to `CN1C(=O)[C@H](CO)NC(=O)[C@H](Cc2ccc(O)cc2)NC(=O)[C@@H](N)CCC(=O)NC[C@@H](C(=O)N(C)[C@@H](Cc2ccc(F)cc2)C(N)=O)N(C)C(=O)[C@H](C2CC2)NC(=O)[C@H](Cc2c[nH]c3ccccc23)NC(=O)[C@H](Cc2c[nH]c3ccc(O)cc23)NC(=O)[C@H](CO)N(C)C(=O)[C@@H]1CCc1ccccc1` [Example A35, (3S,6S,9S,12S,15S,18S,21S,24S,27S)-9-((1H-indol-3-yl)methyl)-27-amino-N—((S)-1-amino-3-(4-fluorophenyl)-1-oxopropan-2-yl)-6-cyclopropyl-12-((5-hydroxy-1H-indol-3-yl)methyl)-24-(4-hydroxybenzyl)-15,21-bis(hydroxymethyl)-N,4,16,19-tetramethyl-5,8,11,14,17,20,23,26,30-nonaoxo-18-phenethyl-1,4,7,10,13,16,19,22,25-nonaazacyclotriacontane-3-carboxamide TFA 5 salt], the Kd in experiment [1] came out at 37 nM; in experiment [2], 66 nM. The half-maximal inhibitory concentration (IC50) in experiment [3] stood at 53 nM; in experiment [4] it was 122 nM.

Regarding `CC(=O)NCCCC[C@H]1C(=O)N[C@@H](Cc2c[nH]c3ccc(O)cc23)C(=O)N[C@H](Cc2c[nH]c3ccccc23)C(=O)N[C@@H](C2CC2)C(=O)N(C)[C@H](C(=O)N(C)[C@@H](Cc2ccc(F)cc2)C(=O)N[C@@H](CCCCNC(=O)CN2CCN(CC(=O)O)CCN(CC(=O)O)CCN(CC(=O)O)CC2)C(N)=O)CNC(=O)CCC[C@H](NC(C)=O)C(=O)N[C@@H](Cc2ccc(O)cc2)C(=O)N[C@@H](CO)C(=O)N(C)[C@@H](CCc2ccccc2)C(=O)N1C` [Example B9], the Kd was 5110 nM in experiment [1] and more than 6000 nM in experiment [2]. For the same molecule, the 50% inhibitory concentration (IC50) in experiment [3] and in experiment [4] was more than 1000 nM throughout.

With `CC(=O)NCCCC[C@H]1C(=O)N[C@@H](Cc2c[nH]c3ccc(O)cc23)C(=O)N[C@@H](Cc2c[nH]c3ccccc23)C(=O)N[C@@H](C2CC2)C(=O)N(C)[C@H](C(=O)N(C)[C@@H](Cc2ccc(F)cc2)C(=O)N[C@@H](CCCCNC(=O)CN2CCN(CC(=O)O)CCN(CC(=O)O)CCN(CC(=O)O)CC2)C(N)=O)CNC(=O)CCCCC(=O)N[C@@H](Cc2ccc(O)cc2)C(=O)N[C@@H](CO)C(=O)N(C)[C@@H](CCc2ccccc2)C(=O)N1C` [Example C14] (YS[NMehPhe][NMeK](Ac)[Trp(5-OH)]W[Gly(cPr)][NMeDap][NMePhe(4-F)]K(DOTA)-NH2; linker N-8 via Adipoyl), the Kd in experiment [1] was less than 0.1 nM; in experiment [2], 0.2 nM. For the same molecule, the concentration for half-maximal inhibition (IC50) in experiment [3] (TR-FRET competition with Cy5 labeled peptide probe, 0.1 nM human HER2, 24 h incubation) was less than 0.1 nM; in experiment [4], 0.3 nM.

Consider `CC(=O)N[C@H]1CCC(=O)NC[C@@H](C(=O)N(C)[C@@H](Cc2ccc(F)cc2)C(N)=O)N(C)C(=O)[C@H](C2CC2)NC(=O)[C@H](Cc2c[nH]c3ccccc23)NC(=O)[C@H](Cc2c[nH]c3ccc(O)cc23)NC(=O)[C@H](CO)N(C)C(=O)[C@H](CCc2ccccc2)N(C)C(=O)[C@H](CO)NC(=O)[C@H](Cc2ccc(O)nc2)NC1=O` [Example A1, (3S,6S,9S,12S,15S,18S,21S,24S,27S)-9-((1H-indol-3-yl)methyl)-27-acetamido-N—((S)-1-amino-3-(4-fluorophenyl)-1-oxopropan-2-yl)-6-cyclopropyl-12-((5-hydroxy-1H-indol-3-yl)methyl)-15,21-bis(hydroxymethyl)-24-((6-hydroxypyridin-3-yl)methyl)-N,4,16,19-tetramethyl-5,8,11,14,17,20,23,26,30-nonaoxo-18-phenethyl-1,4,7,10,13,16,19,22,25-nonaazacyclotriacontane-3-carboxamide] (Ac-E[X2]S[NMehPhe][NMeS][Trp(5-OH)]W[Gly(cPr)][NMeDap][NMePhe(4-F)]-NH2; lactam 1-9), for which the Kd is 97 nM in experiment [1] and 98 nM in experiment [2]. The IC50 was found to be 111 nM in experiment [3] and 224 nM in experiment [4].

Consider `CC(=O)NCCCC[C@H]1C(=O)N[C@@H](Cc2c[nH]c3ccc(O)cc23)C(=O)N[C@@H](Cc2c[nH]c3ccccc23)C(=O)N[C@@H](C2CC2)C(=O)N(C)[C@H](C(=O)N(C)[C@@H](Cc2ccc(F)cc2)C(N)=O)CNC(=O)CCCC(=O)N[C@@H](Cc2ccc(O)cc2)C(=O)N[C@@H](CO)C(=O)N(C)[C@@H](CCc2ccccc2)C(=O)N1C` [Example A7, (3S,6S,9S,12S,15S,18S,21S,24S)-9-((1H-indol-3-yl)methyl)-15-(4-acetamidobutyl)-N-((S)-1-amino-3-(4-fluorophenyl)-1-oxopropan-2-yl)-6-cyclopropyl-12-((5-hydroxy-1H-indol-3-yl)methyl)-24-(4-hydroxybenzyl)-21-(hydroxymethyl)-N,4,16,19-tetramethyl-5,8,11,14,17,20,23,26,30-nonaoxo-18-phenethyl-1,4,7,10,13,16,19,22,25-nonaazacyclotriacontane-3-carboxamide] (YS[NMehPhe][NMeK](Ac)[Trp(5-OH)]W[Gly(cPr)][NMeDap][NMePhe(4-F)]-NH2; linker N-8 via Glutaryl), for which the equilibrium dissociation constant (Kd) stood at 18 nM in experiment [1] and 23 nM in experiment [2]. Further, the IC50 was 18 nM in experiment [3] and 40 nM in experiment [4].

For the origin of these results see patent US20250332300A1 (priority 2024, published 2025).
